Data published in article PMC6691587, “New CXCR1/CXCR2 inhibitors represent an effective treatment for kidney or head and neck cancers sensitive or refractory to reference treatments” (Theranostics, 2019).
Several values for one entry are separate records, joined by “and”; a condition that tells them apart may be missing. Equal values may be shown once. Read-outs that look alike come from different tables or passages of the source.

Legend:
SKM1 = assay: XTT cell viability assay, SKM1 MDS cells; format: cell-based, human; conditions: Homo sapiens, SKM-1, 48 h, SD 10%, mean of three experiments, read-out: IC50 SK (MDS)
Description: (§1) Fifty microliters of sodium 3′-[1-phenylaminocarbonyl)-3,4-tetrazolium]-bis(4-methoxy-6-nitro) benzene sulfonic acid hydrate (XTT) reagent was added to each well. The assay is based on the cleavage of the yellow tetrazolium salt XTT to form an orange formazan dye by metabolically active cells. This bio-reduction occurs in viable cells only and is related to NAD(P)H production through glycolysis. Therefore, the amount of formazan dye measured at 490 nm directly correlated with the number of metabolically active cells reflecting cell proliferation and viability. Each assay was performed in quadruplicate.

HuVEC = assay: XTT cell viability assay, HuVEC; format: cell-based, human; conditions: 48 h, CXCL5 or CXCL7 100 ng/ml
Description: as §1

[1] = system: 786, 786R, CAL27 and CAL27R cells; assay: Apoptosis analysis (annexin-V/PI flow cytometry); format: cell-based, human; conditions: sensitive and resistant cells, 2.5 µM, 48 h
Description: Apoptosis analysis: After stimulation, cells were washed with ice-cold PBS and were stained with the annexin-V-fluo staining kit (Roche, Meylan, France) according to the manufacturer's procedure. Fluorescence was measured using the FL2 (AV) and FL3 (propidium iodide, PI) channels of a fluorescence-activated cell sorter apparatus (Calibur cytometer).

CAL27 = assay: XTT cell viability assay, CAL27 HNSCC cells; format: cell-based, human; conditions: for IC50: Homo sapiens, CAL-27
Description: as §1

[2] = system: cisplatin-resistant CAL27 cells (CAL27R); assay: XTT cell viability assay, cisplatin-resistant CAL27 cells; format: cell-based, human; conditions: 1 to 10 µM 48 h, 2.5 µM 24 to 96 h
Description: as §1

MDA-MD-231 = assay: XTT cell viability assay, breast cancer cells; format: cell-based, human; conditions: Homo sapiens, 48 h, SD 10%, mean of three experiments
Description: as §1

786-O = assay: XTT cell viability assay, 786-O RCC cells; format: cell-based, human; conditions: for IC50: Homo sapiens, 786-0
Description: as §1

[3] = system: primary normal kidney cells (15S); assay: Cell viability, primary normal kidney cells; format: cell-based
Description: as §1
For the experiments with C29, we confirmed all the results by evaluating the cell viability. Cell viability and cell death was assessed using the ADAM-MC apparatus (NanoEnTek, Guro-gu, Seoul, Korea) based on fluorescent propidium iodide staining according to the manufacturer's instructions.
To determine the selectivity of the activity of the substances tested, the selectivity index (SI) was calculated according to the equation previously described where SI = IC50 of a compound in a normal cell line/IC50 of the same compound in cancer cell line. The IC50 is the concentration required to kill 50% of the cell population.

[4] = system: panel of human tumor cell lines; assay: XTT screening on a panel of tumor cell lines; format: cell-based; conditions: Homo sapiens; read-out: IC50 values for several cancer cell lines
Description: as §1

[5] = system: sunitinib-resistant 786-O cells (786R); assay: XTT cell viability assay, sunitinib-resistant 786-O cells; format: cell-based, human; conditions: 1 to 10 µM 48 h, 2.5 µM 24 to 96 h
Description: as §1

CXCR2 = target: T1, CXCR2 (Homo sapiens, UniProt P25025); assay: Membrane-associated CXCR2 level in HuVEC by flow cytometry; format: cell-based; conditions: CXCL8 25 ng/ml 1 h, C29 2.5 µmol/L
T1 construct: CXCR1/2 are expressed on endothelial cells and participate in ELR^+CXCL-mediated angiogenesis; endogenous in cells; host or cells: HuVEC
Description: CXCR2 measurement: After stimulation, cells were washed with PBS and stained with the CXCR2-PE antibody (Miltenyi) for 30 min at room temperature. Fluorescence was measured using the FL2 (PE) channels of a fluorescence-activated cell sorter apparatus (Calibur cytometer).

[6] = Pharmacokinetic parameters after oral administration; format: in vivo; conditions: plasma, CD-1 mice, oral gavage 50 mg/kg
Description: The in vivo pharmacokinetic parameters were determined in CD-1 mice at a dose of 50 mg/kg after oral administration. The plasma samples (400 µL) were mixed with acetonitrile (1 mL) to precipitate the proteins and extract the compound. After mixing and sonication, proteins were precipitated by centrifugation and the supernatants were analyzed by UPLCMS/MS.

CAL33 = assay: XTT cell viability assay, CAL33 HNSCC cells; format: cell-based, human; conditions: for IC50: Homo sapiens, CAL-33
Description: as §1

CXCR1 = target: T2, CXCR1 (Homo sapiens, UniProt P25024); assay: Membrane-associated CXCR1 level in HuVEC by flow cytometry; format: cell-based; conditions: CXCL7 25 ng/ml 1 h, C29 2.5 µmol/L
T2 construct: CXCR1/2 are expressed on endothelial cells and participate in ELR^+CXCL-mediated angiogenesis; endogenous in cells; host or cells: HuVEC

A498 cells = assay: Ectopic model of RCC (A498 xenograft); format: in vivo, nude (nu/nu) female mice
Description: One microgram of total RNA was used for the reverse transcription, using the QuantiTect Reverse Transcription kit (QIAGEN, Hilden, Germany), with blend of oligo (dT) and random primers to prime first-strand synthesis. SYBR master mix plus (Eurogentec) was used for qPCR. The mRNA level was normalized to 36B4 mRNA. The sequences of oligo nucleotides used in our experiments are describe in Table S1.
These studies were carried out in strict accordance with the recommendations in the Guide for the Care and Use of Laboratory Animals. Our experiments were approved by the ''Comité National Institutionnel d'Ethique pour l'Animal de Laboratoire'' (reference: PEA-255 and PEA-277). Cells were injected subcutaneously into the flank of 5-week-old nude (nu/nu) female mice (Janvier). When the tumor reached 100 mm^3, mice were treated. The tumor volume was determined with a caliper (v = L*l2*0.5).
1-Seven million A498 cells were injected subcutaneously. Mice were treated five times a week for 4 weeks, by gavage with placebo (dextrose water vehicle) or C29 (50 mg/kg).
Sections of formol-fixed and paraffin-embedded tumors were incubated with monoclonal anti-Ki67 (clone MIB1, DAKO) or anti-CD31 (clone MEC 13.3, BD Pharmingen) antibodies. A biotinylated secondary antibody (DAKO) was applied and binding was detected with the substrate diaminobenzidine against a hematoxylin counterstain.

[7] = XTT, 1 to 10 µM 48 h, 2.5 µM 24 to 96 h

T1 sequence (P25025 whole entry): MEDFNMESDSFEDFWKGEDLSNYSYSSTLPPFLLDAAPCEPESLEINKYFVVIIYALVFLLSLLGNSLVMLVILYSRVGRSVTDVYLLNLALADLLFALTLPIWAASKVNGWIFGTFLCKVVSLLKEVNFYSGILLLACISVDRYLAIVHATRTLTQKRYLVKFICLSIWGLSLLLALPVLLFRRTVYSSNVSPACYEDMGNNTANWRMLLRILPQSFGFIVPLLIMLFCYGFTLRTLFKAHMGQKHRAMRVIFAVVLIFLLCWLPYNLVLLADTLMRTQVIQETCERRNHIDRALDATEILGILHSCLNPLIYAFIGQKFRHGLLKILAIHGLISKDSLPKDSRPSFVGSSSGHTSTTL
T2 sequence (P25024 whole entry): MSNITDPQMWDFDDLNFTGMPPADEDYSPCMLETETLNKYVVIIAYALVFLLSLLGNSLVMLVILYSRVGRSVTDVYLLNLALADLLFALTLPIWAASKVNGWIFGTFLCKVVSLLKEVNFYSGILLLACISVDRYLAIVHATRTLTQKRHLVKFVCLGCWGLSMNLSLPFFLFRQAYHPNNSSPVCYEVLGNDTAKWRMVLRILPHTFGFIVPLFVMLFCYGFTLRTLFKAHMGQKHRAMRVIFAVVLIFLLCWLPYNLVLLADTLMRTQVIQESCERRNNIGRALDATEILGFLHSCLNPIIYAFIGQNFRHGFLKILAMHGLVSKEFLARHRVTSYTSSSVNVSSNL

IC50 (SKM1): 5000 nM | IC50 (MDA-MD-231): 2500 nM | IC50 (786-O; CXCR1+/CXCR2+, read-out: IC50 786-O): 2000 nM | IC50 (786-O; XTT assay, 48 h, SD 10%, mean of three experiments, read-out: IC50 786 (Kidney RCC)): 2000 nM | IC50 [4]: < 20000 nM | CXCR2 levels at the plasma membrane (CXCR2): increased | half-life ([6]; CD-1, mouse, po, 50 mg/kg, formulated at 7.6 mg/mL, read-out: half-life (t ½)): 3.17 h | AUC ([6]; mouse): ~1420 ng·h/mL | Cmax ([6]; mouse): 900 ng/mL and 2.6 µM | Tmax ([6]; mouse): 0.5 h | AUC(0-t) ([6]; mouse, read-out: AUC last PO (converted)): 1420 ng·h/mL | CXCR1 levels at the plasma membrane (CXCR1): increased | weight loss of the animals, RCC model (A498 cells; 50 mg/kg gavage): did not observe any weight loss
SMILES: O=C(Nc1cccc(Cl)c1)Nc1nc2ccc([N+](=O)[O-])cc2s1 [C29]
basal and CXCL5/CXCL7-dependent HuVECs viability (HuVEC): inhibited | cell death (annexin-V/PI) [1]: induced cell death | IC50 (CAL27; CXCR1+/CXCR2+, read-out: IC50 CAL27): 2500 nM | IC50 (CAL27; XTT assay, 48 h, SD 10%, mean of three experiments, read-out: IC50 27 (HNSCC)): 2500 nM | Selectivity index CAL27 (CAL27; SI = IC50 in normal cells (15S)/IC50 in CAL27): 5 | effect on CAL27 HNSCC cell viability compared with cisplatin (CAL27; [7]): greater than that of cisplatin | effect on cisplatin-resistant CAL27 cell viability [2]: equivalent | Selectivity index 786-O (786-O; SI = IC50 in normal cells (15S)/IC50 in 786-O): 6.25 | viability of sensitive 786-O RCC cells compared with sunitinib (786-O; [7]): as efficiently as sunitinib | IC50 ([3]; CXCR1-/CXCR2-, normal primary kidney cells): 12500 nM | Selectivity index 15S ([3]; SI = IC50 in normal cell line (15S)/IC50 in this cell line, reference): 1 | effect on primary normal kidney cells (15S) ([3]; even at a higher concentration (5 µmol/L)): no effect | effect on cell viability of sunitinib-resistant 786-O cells [5]: conserved | IC50 (CAL33; CXCR1+/CXCR2+, read-out: IC50 CAL33): 4000 nM | IC50 (CAL33; XTT assay, 48 h, SD 10%, mean of three experiments, read-out: IC50 33 (HNSCC)): 4000 nM | Selectivity index CAL33 (CAL33; SI = IC50 in normal cells (15S)/IC50 in CAL33): 3.13 | mRNA level of murine CD31, experimental RCC (A498 cells): decreased | decrease in the tumor weight, RCC (A498 cells; 50 mg/kg gavage): 40% | proliferation marker Ki-67, experimental RCC (A498 cells; 50 mg/kg gavage): decreased | decrease of the tumor volume at the end of the experiment, RCC (A498 cells; 50 mg/kg gavage five times a week for 4 weeks): more than 65% | PI3K/AKT and ERK pathways in tumor lysates, experimental RCC (A498 cells; immunoblotting): inhibited PI3K/AKT but not the ERK pathway | mRNA levels of ERL+CXCL cytokines (CXCL5/7/8), experimental RCC (A498 cells; qPCR, VEGFA not decreased): significantly decreased
